Measured values from patent US6528522B2, “Substituted imidazoles as dual histamine H1 and H3 agonists or antagonists” (Schering Corporation, priority 2000, dated 2003).

What was measured:
histamine H1 receptor = target: T1, histamine H1 receptor (Rattus norvegicus, UniProt P31390); assay: H1-Receptor Binding Assay (rat brain membranes, [3H]pyrilamine); conditions: male Sprague-Dawley rat brain membranes, Ki by Cheng-Prusoff, HCl salt of the indicated compound, read-out: H1 Ave Ki
T1 construct: The tissue source was male Sprague-Dawley rat brain; tissue Rockland Corporation, Gilbertsville, Pa; host or cells: male Sprague-Dawley rat brain membranes
Excerpt: General Procedure for H1.—Receptor Binding Assay: The procedure used was based on that disclosed in V. T. Tran et al, “Histamine H1 receptors identified in mammalian brain membranes with [H-3]mepyramine”, Proc. Natl. Acad. Sci. U.S.A. 75 (1978) 6290-6294.
I. Tissue preparation protocol for histamine H1 receptor binding assay:
1. The tissue source was male Sprague-Dawley rat brain. These were purchased stripped and frozen (available from Rockland Corporation, Gilbertsville, Pa.). The buffer used was ice-cold 50 mM Tris-HCl, pH 7.5. (The pH was determined at 25° C.)
2. The brains were spread out on plastic wrap on the benchtop and allowed to thaw for 10-15 min. After this, everything was kept ice-cold.
3. Two brains were put in each 50 ml round bottom centrifuge tube and 25 ml of buffer was added. Then they were broken up with a Polytron (from Brinkmann Instruments, Westbury, N.Y.) equipped with a PT-10 tip at setting 6 for 30 sec.
4. The volume in the tube was brought up to 45 ml and mixed and the particulate material was centrifuged at 1000×g (3000 rpm, SS-34 rotor) for 10 min to remove nuclei and unbroken cells.
5. Pellets were discarded and the supernatants were centrifuged 10 min at 50,000×g (20,000 rpm, SS-34 rotor).
6. The high-speed pellets were resuspended in a volume of Tris buffer equal to the original (4 ml), the contents of all tubes were pooled, and a sample was taken for BCA protein assay . The material was aliquotted, 45 ml per round-bottom tube, and the resuspension was recentrifuged. The yield of protein was approximately 20 mg/brain, so there was about 40 mg of protein per tube.
7 . Pellets were frozen at −80° C.
II. H1 Histamine receptor binding assay:
1. FDCL and comparative compounds for assay were independently solubilized at 1 mg/ml DMSO by vortexing, or if necessary by sonication. The first dilution, 100-fold, was made in 50 mM Tris-HCl, pH 7.5, at room temperature. The three or four subsequent ten-fold serial dilutions were made in 1% DMSO/50 mM Tris-HCl, pH 7.5. Drug solutions and assay plates were kept at room temperature during the course of the assay set up.
2. Test compounds were assayed at four or five concentrations: 1, 0.1, 0.01, 0.001, and 0.0001 μg/ml. Twenty μl of drug solution was pipeted into each of three wells.
3. [^3H]Pyrilamine was diluted approximately 2000-fold with ice-cold […] Tris-HCl, pH 7.5 (to a working concentration of 20-25 nM), and put on ice.
4. A frozen tissue pellet was thawed in a 25° C. water bath, resuspended in 50 mM Tris-HCl, pH 7.5, at 1.7-2 mg/ml by brief break-up on the Polytron, and put on ice.
5. Twenty μl of diluted [^3H]pyrilamine was added to each well.
6. One hundred fifty μl of tissue suspension was added to each well.
7. The top of the plate was covered and it was placed in a 25° C. shaking water bath (about 60 oscillations/min) for 30 min..
8. Samples were filtered on a Tomtec Mach 2 harvester (available from Tomtec Corporation, Orange, Conn.) through a GF/B filter mat (from Wallac, Inc., Gaithersburg, Md.) presoaked in 0.3% polyethylenimine. Each sample was thrice washed with ice-cold 50 mM Tris-HCl, pH 7.5 dried 20 sec on the Tomtec, and dried 3-4 min in a microwave oven on a paper towel. The filter was impregnated with MELTILEX brand wax scintillant (from Wallac Corporation) and counted on a Betaplate scintillation counter (from Wallac Corporation).
9. Specific binding was determined as the difference between total and nonspecific binding. […]

H3 receptors = target: T2, H3 receptors (Cavia porcellus, UniProt Q9JI35); assay: H3-Receptor Binding Assay (guinea pig brain membranes, [3H]R-α-methyl histamine or [3H]Nα-methyl histamine); conditions: HCl salt of the indicated compound, read-out: H3 Ave Ki
T2 construct: The source of the H3 receptors in this experiment was guinea pig brain; from tissue; host or cells: guinea pig brain membranes
Protocol: General Procedure for H3—Receptor Binding Assay
The source of the H3 receptors in this experiment was guinea pig brain. The animals weighed 400-600 g. The brain tissue was homogenized with a solution of 50 mM Tris, pH 7.5. The final concentration of tissue in the homogenization buffer was 10% w/v. The homogenates were centrifuged at 1,000×g for 10 min. in order to remove clumps of tissue and debris. The resulting supernatants were then centrifuged at 50,000×g for 20 min. in order to sediment the membranes, which were next washed three times in homogenization buffer (50,000×g for 20 min. each). The membranes were frozen and stored at −70° C. until needed.
All compounds to be tested were dissolved in DMSO and then diluted into the binding buffer (50 mM Tris, pH 7.5) such that the final concentration was 2 μg/ml with 0.1% DMSO. Membranes were then added (400 μg of protein) to the reaction tubes. The reaction was started by the addition of 3 nM [^3H]R-α-methyl histamine (8.8 Ci/mmol) or 3 nM [^3H]N^α-methyl histamine (80 Ci/mmol) and continued under incubation at 30° C. for 30 min. Bound ligand was separated from unbound ligand by filtration, and the amount of radioactive ligand bound to the membranes was quantitated by liquid scintillation spectrometry. All incubations were performed in duplicate and the standard error was always less than 10%. Compounds that inhibited more than 70% of the specific binding of radioactive ligand to the receptor were serially diluted to determine a Ki (nM). The results are given in the Table 1 for the HCl salt of the indicated compound.

T1 sequence (P31390 whole entry): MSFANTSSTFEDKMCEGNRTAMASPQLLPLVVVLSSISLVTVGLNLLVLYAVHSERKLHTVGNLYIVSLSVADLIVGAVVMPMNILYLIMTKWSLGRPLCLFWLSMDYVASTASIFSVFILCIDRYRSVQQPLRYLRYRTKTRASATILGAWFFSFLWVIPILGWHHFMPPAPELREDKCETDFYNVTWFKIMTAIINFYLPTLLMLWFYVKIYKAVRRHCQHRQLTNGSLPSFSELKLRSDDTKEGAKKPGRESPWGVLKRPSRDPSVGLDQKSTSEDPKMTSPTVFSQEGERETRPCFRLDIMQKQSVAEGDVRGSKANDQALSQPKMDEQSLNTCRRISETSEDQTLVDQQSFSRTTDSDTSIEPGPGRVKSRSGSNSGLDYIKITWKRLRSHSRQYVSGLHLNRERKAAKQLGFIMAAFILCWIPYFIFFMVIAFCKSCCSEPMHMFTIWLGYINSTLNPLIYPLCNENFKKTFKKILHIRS
T2 sequence (Q9JI35 whole entry): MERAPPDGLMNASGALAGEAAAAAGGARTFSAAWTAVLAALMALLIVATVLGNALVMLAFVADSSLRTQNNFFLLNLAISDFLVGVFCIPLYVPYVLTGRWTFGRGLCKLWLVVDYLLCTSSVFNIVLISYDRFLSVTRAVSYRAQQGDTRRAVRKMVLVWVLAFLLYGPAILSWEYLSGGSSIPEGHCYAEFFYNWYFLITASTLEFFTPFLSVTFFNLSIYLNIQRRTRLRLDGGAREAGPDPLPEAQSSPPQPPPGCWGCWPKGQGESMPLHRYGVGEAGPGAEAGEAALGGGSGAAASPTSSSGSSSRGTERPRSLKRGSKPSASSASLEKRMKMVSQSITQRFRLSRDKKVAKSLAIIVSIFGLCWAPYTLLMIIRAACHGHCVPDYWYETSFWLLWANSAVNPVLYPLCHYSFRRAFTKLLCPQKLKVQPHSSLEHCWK

Ki (histamine H1 receptor) | Ki (H3 receptors) | SMILES
502 nM | 7.5 nM | Clc1ccc2c(c1)CCc1cccnc1C2NCCCCCc1c[nH]cn1 (centres unmarked)
– | 9 nM | Clc1ccc2c(c1)CCc1cccnc1C2CCN(CCCCc1c[nH]cn1)CCCCc1c[nH]cn1 (centres unmarked)
– | 7.5 nM | Clc1ccc2c(c1)CCc1cccnc1C2CCNCCCCc1c[nH]cn1 (centres unmarked)

Continued, compound first:

SMILES | Ki (histamine H1 receptor) | Ki (H3 receptors)
Clc1ccc2c(c1)CCc1cccnc1C2NCCCCc1c[nH]cn1 (centres unmarked) | 41 nM | 29 nM
Clc1ccc2c(c1)CCc1cccnc1C2NCCc1c[nH]cn1 (centres unmarked) | 144 nM | 70 nM
Clc1ccc2c(c1)CCc1cccnc1C2CCN(CCCc1c[nH]cn1)CCCc1c[nH]cn1 (centres unmarked) | 571 nM | 25 nM
Clc1ccc2c(c1)CCc1cccnc1C2CCNCCCc1c[nH]cn1 (centres unmarked) | 40 nM | 37 nM
Clc1ccc2c(c1)CCc1cccnc1C2CCNCCCCCc1c[nH]cn1 (centres unmarked) | – | 7 nM
Clc1ccc2c(c1)CCc1cccnc1C2CCN(CCCCCc1c[nH]cn1)CCCCCc1cnc[nH]1 (centres unmarked) | – | 26 nM
